The values that follow come from publication PMC10388794 (Journal of Enzyme Inhibition and Medicinal Chemistry, 2023).

Assay [1] has as its system Aβ1–42-induced cognitive impairment in mice. As to the kind of experiment: Morris water maze in Aβ1–42-induced cognitive impairment model. It counts as in vivo. Conditions: T14-A24 10 mg/kg po, donepezil 15 mg/kg po.
In assay [2] the target is recombinant human AChE (hAChE) (Homo sapiens, UniProt P22303). As to the kind of experiment: hAChE inhibition assay. It is filed as biochemical. The conditions noted are these: read-out: hAChE inhibition rate % at 20 µM.
Chain of recombinant human AChE (hAChE) (P22303 32-614): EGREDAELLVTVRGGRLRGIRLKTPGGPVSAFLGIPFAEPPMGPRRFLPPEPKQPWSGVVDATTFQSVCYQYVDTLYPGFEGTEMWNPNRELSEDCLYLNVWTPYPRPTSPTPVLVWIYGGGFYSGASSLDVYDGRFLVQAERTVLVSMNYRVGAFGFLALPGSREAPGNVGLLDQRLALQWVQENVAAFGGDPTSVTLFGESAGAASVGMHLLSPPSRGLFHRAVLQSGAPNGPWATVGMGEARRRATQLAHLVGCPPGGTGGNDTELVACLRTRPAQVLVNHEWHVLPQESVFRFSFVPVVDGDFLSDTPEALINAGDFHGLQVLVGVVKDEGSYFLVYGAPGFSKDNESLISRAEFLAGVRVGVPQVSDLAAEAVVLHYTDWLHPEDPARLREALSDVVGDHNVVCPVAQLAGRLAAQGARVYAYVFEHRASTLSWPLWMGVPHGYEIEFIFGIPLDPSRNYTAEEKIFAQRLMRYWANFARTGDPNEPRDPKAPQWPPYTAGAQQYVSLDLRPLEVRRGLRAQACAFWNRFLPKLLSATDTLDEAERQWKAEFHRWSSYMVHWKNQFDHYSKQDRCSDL

For the compound `COc1cc2c(cc1OC)C(=O)C(CC1CCN(Cc3ccccc3)CC1)C2` (centres unmarked) [Donepezil], the “Aβ1–42-induced cognitive dysfunction (Morris water maze)” value in assay [1] is recorded as “significantly improved”.
On to `CCN(C)C(=O)Oc1cccc([C@H](C)N(C)C)c1` [Rivastigmine], for which the inhibition – broadly, the change of the read-out against control, counted positive when it falls – at 20 µM in assay [2] worked out at 16.5 ± 0.8%.
